This note sets out measurements from patent US20230131025A1, “QUINOLYL PHOSPHINE OXIDE COMPOUND, AND COMPOSITION AND APPLICATION THEREOF” (Betta Pharmaceuticals Co., Ltd., priority 2020, published 2023).

In assay [1] the test system is Ba/F3-Δ19del/T790M/C797S-derived xenograft (CDX). As to the kind of experiment: In vivo efficacy experiment, xenograft tumor growth. Further details: species or system BALB/c nude mice. As to the method: In vivo efficacy experiments were performed on Ba/F3-Δ19del/T790M/C797S-derived xenograft (CDX) BALB/c nude mice. […] They were fed in an SPF environment, with each cage individually ventilated (6 mice per cage). […] Each mouse was subcutaneously inoculated with 0.1 mL cells (5×10^6 cells, the volume ratio of matrigel to cell was 1:1) on the right upper limb. When the tumor volume was about 150 mm^3, the grouped mice were separately administered with compound J-022 (10 mg/kg, 100 mg/kg, 150 mg/kg) orally QD for 15 consecutive days. Tumor diameters were measured with vernier calipers twice a week. The volume of tumor is calculated as: V=0.5a×b^2, wherein a and b represent the long diameter and short diameter of the tumor, respectively. The tumor growth inhibition rate TGI (%) was calculated to evaluate the tumor inhibitory effect of the compounds. TGI (%) was calculated with the following formula: TGI (%)=(1−(the average tumor volume of the compound treatment group at the end of the administration−the average tumor volume of the compound treatment group at the beginning of the administration)/(the average tumor volume of the solvent control group at the end of treatment−the average tumor volume of the solvent control group at the beginning of treatment))×100%.

A further assay concerns the target Ba/F3-Δ19del/T790M/C797S (Homo sapiens, UniProt P00533, T790M/C797S, cells depend on it, form not given). The assay is described as follows: Cell proliferation experiment (CellTiter Glo, 72 hours). It counts as cell-based. The note with it: read-out: Ba/F3/EGFR Δ19del/T790M/C797S IC50. Put shortly: (§1)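 Ba/F3 cells overexpressing EGFR Δ19del/T790M/C797S or EGFR WT were seeded at 2000 or 3000 cells/well and exposed 72 h to 9 compound concentrations (3-fold, top 10000 or 1111 nM final, 0.1% DMSO). CellTiter-Glo luminescence gave survival inhibition versus controls; IC50 from nonlinear fit.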
For orientation: Cellular ATP, detected with luciferase, serves as a proxy for viable cell number.

Another assay concerns the target Ba/F3 EGFR WT (Homo sapiens, UniProt P00533). Described as above. The following applies: read-out: BaF3 EGFR WT IC50. It counts as cell-based. Put shortly: as §1

Sequence of Ba/F3-Δ19del/T790M/C797S (P00533 with tags, fused parts or gaps DEL746-750/T790M/C797S, form open): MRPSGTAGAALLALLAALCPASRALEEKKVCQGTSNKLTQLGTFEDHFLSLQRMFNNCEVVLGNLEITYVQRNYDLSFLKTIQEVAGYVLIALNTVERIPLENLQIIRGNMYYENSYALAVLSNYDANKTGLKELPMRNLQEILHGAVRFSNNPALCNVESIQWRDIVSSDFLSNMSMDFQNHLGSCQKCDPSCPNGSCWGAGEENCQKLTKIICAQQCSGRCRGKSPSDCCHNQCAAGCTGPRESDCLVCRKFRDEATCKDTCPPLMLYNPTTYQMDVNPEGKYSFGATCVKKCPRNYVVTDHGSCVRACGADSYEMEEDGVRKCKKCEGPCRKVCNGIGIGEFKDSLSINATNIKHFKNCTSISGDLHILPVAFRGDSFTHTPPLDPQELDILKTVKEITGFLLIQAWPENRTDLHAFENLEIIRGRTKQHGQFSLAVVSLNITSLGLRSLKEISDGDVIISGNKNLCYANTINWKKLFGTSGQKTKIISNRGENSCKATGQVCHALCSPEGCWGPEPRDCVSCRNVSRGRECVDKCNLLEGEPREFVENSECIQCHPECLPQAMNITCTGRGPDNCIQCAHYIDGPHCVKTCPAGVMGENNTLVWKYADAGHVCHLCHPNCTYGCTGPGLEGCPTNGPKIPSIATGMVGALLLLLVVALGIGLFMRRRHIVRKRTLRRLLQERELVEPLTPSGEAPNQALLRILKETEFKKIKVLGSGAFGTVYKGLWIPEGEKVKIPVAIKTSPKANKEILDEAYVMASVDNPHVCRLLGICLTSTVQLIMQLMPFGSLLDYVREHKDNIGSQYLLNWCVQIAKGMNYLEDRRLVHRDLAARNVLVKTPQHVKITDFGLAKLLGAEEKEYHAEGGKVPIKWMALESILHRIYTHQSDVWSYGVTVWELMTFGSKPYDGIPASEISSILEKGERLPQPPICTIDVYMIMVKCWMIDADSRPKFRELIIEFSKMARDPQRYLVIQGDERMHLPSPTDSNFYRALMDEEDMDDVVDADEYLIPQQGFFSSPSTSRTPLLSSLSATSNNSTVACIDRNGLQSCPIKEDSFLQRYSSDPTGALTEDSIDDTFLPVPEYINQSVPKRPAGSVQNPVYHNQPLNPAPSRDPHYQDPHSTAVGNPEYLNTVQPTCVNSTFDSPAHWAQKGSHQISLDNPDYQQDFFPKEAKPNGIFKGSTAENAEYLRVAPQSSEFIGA
Sequence of Ba/F3 EGFR WT (P00533 whole entry, change not shown): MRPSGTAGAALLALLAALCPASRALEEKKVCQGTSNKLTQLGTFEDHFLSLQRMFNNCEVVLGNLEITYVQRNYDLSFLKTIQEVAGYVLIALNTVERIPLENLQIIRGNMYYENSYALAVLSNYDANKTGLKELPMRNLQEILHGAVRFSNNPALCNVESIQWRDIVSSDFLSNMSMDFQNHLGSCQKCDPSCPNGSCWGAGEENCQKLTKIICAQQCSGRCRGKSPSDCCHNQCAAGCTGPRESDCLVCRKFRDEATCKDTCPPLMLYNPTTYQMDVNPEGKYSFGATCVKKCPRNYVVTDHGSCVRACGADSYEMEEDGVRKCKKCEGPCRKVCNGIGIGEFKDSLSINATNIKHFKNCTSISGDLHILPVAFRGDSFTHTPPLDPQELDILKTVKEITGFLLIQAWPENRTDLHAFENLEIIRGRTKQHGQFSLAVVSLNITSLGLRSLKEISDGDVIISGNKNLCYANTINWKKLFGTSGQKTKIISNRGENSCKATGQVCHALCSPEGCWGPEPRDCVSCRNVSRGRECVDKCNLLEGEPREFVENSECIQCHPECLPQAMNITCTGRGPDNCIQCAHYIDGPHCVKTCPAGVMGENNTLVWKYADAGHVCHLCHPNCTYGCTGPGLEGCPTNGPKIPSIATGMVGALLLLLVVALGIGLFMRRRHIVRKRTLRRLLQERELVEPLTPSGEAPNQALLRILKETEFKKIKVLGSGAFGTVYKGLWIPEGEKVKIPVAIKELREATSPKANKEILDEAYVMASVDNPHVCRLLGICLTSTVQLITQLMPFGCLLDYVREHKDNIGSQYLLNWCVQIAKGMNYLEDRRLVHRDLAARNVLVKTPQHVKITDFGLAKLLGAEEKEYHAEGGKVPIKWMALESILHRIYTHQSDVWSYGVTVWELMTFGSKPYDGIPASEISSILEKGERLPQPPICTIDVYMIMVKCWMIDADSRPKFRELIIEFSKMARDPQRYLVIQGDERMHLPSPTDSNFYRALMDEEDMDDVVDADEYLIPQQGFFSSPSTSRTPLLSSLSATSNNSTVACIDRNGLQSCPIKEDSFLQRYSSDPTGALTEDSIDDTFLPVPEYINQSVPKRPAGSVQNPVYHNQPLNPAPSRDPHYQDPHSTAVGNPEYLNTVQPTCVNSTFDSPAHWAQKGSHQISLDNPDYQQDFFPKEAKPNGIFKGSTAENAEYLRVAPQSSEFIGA

For `COc1cc(N2CCC(N3CCN(C)CC3)CC2)c(C)cc1Nc1ncc(Br)c(Nc2ccc3nc(C4CC4)ccc3c2P(C)(C)=O)n1` [Compound J-022, (6-((5-Bromo-2-((2-methoxy-5-methyl-4-(4-(4-methylpiperazin-1-yl)piperidin-1-yl)phenyl)amino)pyrimidin-4-yl)amino)-2-cyclopropylquinolin-5-yl)dimethylphosphine oxide], the Tumor volume was 152 mm^3 in assay [1] (10 mg/kg/day oral QD, 0 day); 183 mm^3 in assay [1] (10 mg/kg/day oral QD, 3 day); 321 mm^3 in assay [1] (10 mg/kg/day oral QD, 7 day); 747 mm^3 in assay [1] (10 mg/kg/day oral QD, 10 day); 1650 mm^3 in assay [1] (10 mg/kg/day oral QD, 15 day); 151 mm^3 in assay [1] (100 mg/kg/day oral QD, 0 day). For the same compound, the Tumor volume in assay [1] (100 mg/kg/day oral QD, 3 day) is given as 99 mm^3; in assay [1] (100 mg/kg/day oral QD, 7 day) it was 59 mm^3; in assay [1] (100 mg/kg/day oral QD, 10 day) it was 0 mm^3; in assay [1] (100 mg/kg/day oral QD, 15 day), 0 mm^3; in assay [1] (150 mg/kg/day oral QD, 0 day), 152 mm^3; in assay [1] (150 mg/kg/day oral QD, 3 day), 102 mm^3. Moreover, the Tumor volume in assay [1] (150 mg/kg/day oral QD, 7 day) turned out to be 4 mm^3; in assay [1] (150 mg/kg/day oral QD, 10 day) it was 0 mm^3; in assay [1] (150 mg/kg/day oral QD, 15 day), 0 mm^3. Also, the “15 day TGI %” value was 53% in assay [1] (10 mg/kg/day oral QD, 15 consecutive days); 105% in assay [1] (100 mg/kg/day oral QD, 15 consecutive days); 105% in assay [1] (150 mg/kg/day oral QD, 15 consecutive days). Besides, in assay [1] (100 mg/kg/day or 150 mg/kg/day, 15 consecutive days), the Tumor regression entry is reported as “tumor completely regressed”. The compound further registered a half effective dose in assay [1] (dose with TGI 53%) of 10 mg/kg/day. In addition, the GI50 at Ba/F3-Δ19del/T790M/C797S was 0.0068 µM; on Ba/F3 EGFR WT, 0.151 µM.
